ChEMBL document CHEMBL5143523, “Construction and activity evaluation of novel benzodioxane derivatives as dual-target antifungal inhibitors” (Eur J Med Chem, 2022)
In brackets after ≈: the same amount, converted by molar mass.

Columns and labels:
Candida albicans [1] = assay: Antifungal activity against Candida albicans ATCC 10231 assessed as fungal growth inhibition measured after 72 hrs by CLSI protocol based liquid medium dilution method; format: functional
Pichia kudriavzevii = assay: Antifungal activity against Candida krusei ATCC 6258 assessed as fungal growth inhibition measured after 72 hrs by CLSI protocol based liquid medium dilution method; format: functional
Nakaseomyces glabratus = assay: Antifungal activity against Candida glabrata ATCC 0001 assessed as fungal growth inhibition measured after 72 hrs by CLSI protocol based liquid medium dilution method; format: functional
Candida tropicalis = assay: Antifungal activity against Candida tropicalis ATCC 1369 assessed as fungal growth inhibition measured after 72 hrs by CLSI protocol based liquid medium dilution method; format: functional
Aspergillus fumigatus = assay: Antifungal activity against Aspergillus fumigatus KM8001 assessed as fungal growth inhibition measured after 72 hrs by CLSI protocol based liquid medium dilution method; format: functional
Candida albicans [2] = assay: Antifungal activity against fluconazole resistant Candida albicans strain 17# assessed as fungal growth inhibition measured after 72 hrs by CLSI protocol based liquid medium dilution method; format: functional
Candida albicans [3] = assay: Antifungal activity against fluconazole resistant Candida albicans strain CaR assessed as fungal growth inhibition measured after 72 hrs by CLSI protocol based liquid medium dilution method; format: functional
Candida albicans [4] = assay: Antifungal activity against fluconazole resistant Candida albicans strain 103 assessed as fungal growth inhibition measured after 72 hrs by CLSI protocol based liquid medium dilution method; format: functional
Candida albicans [5] = assay: Antifungal activity against fluconazole resistant Candida albicans strain 901 assessed as fungal growth inhibition measured after 72 hrs by CLSI protocol based liquid medium dilution method; format: functional
Candida albicans [6] = assay: Antifungal activity against fluconazole resistant Candida albicans strain 904 assessed as fungal growth inhibition measured after 72 hrs by CLSI protocol based liquid medium dilution method; format: functional
Candida albicans [7] = assay: Induction of apoptosis in Candida albicans ATCC SC5314 cells assessed as live cells at 8 ug/ml incubated for 72 hrs by Annexin V-FITC/PI staining based flow cytometry method (reference value: 95.56%); format: functional; details: dose 8 µg/ml
Candida albicans [8] = assay: Induction of apoptosis in Candida albicans ATCC SC5314 cells assessed as early apoptotic cells at 8 ug/ml incubated for 72 hrs by Annexin V-FITC/PI staining based flow cytometry method (reference value: 0.56%); format: functional; details: dose 8 µg/ml
Candida albicans [9] = assay: Induction of apoptosis in Candida albicans ATCC SC5314 cells assessed as necrotic cells at 8 ug/ml incubated for 72 hrs by Annexin V-FITC/PI staining based flow cytometry method (reference value: 3.76%); format: functional; details: dose 8 µg/ml
Candida albicans [10] = assay: Induction of apoptosis in Candida albicans ATCC SC5314 cells assessed as late apoptotic cells at 8 ug/ml incubated for 72 hrs by Annexin V-FITC/PI staining based flow cytometry method (reference value: 0.12%); format: functional; details: dose 8 µg/ml
Candida albicans [11] = assay: Antifungal activity against Candida albicans ATCC SC5314 assessed as decrease in ergosterol content at 4 ug/ml incubated for 48 hrs by LC-MS analysis (reference value: 90.6%); format: functional; parameters: scale not given: the % may be the effect or the level left; details: dose 4 µg/ml
Candida albicans [12] = assay: Antifungal activity against Candida albicans ATCC SC5314 assessed as change in squalene level at 4 ug/ml incubated for 48 hrs by LC-MS analysis; format: functional; details: dose 4 µg/ml
Candida albicans [13] = assay: Antifungal activity against Candida albicans ATCC SC5314 assessed as change in lanosterol level at 4 ug/ml incubated for 48 hrs by LC-MS analysis (reference value: 3.7%); format: functional; details: dose 4 µg/ml
Candida albicans [14] = assay: Antifungal activity against Candida albicans ATCC SC5314 assessed as change in eburicol level at 4 ug/ml incubated for 48 hrs by LC-MS analysis (reference value: 1.4%); format: functional; details: dose 4 µg/ml
Candida albicans [15] = assay: Antifungal activity against Candida albicans ATCC SC5314 assessed as change in unknown sterol level at 4 ug/ml incubated for 48 hrs by LC-MS analysis (reference value: 4.3%); format: functional; details: dose 4 µg/ml
Squalene epoxidase ERG1 = target: T1, Squalene epoxidase ERG1 (Candida albicans, UniProt Q92206); assay: Inhibition of SE in Candida albicans ATCC SC5314 incubated for 30 mins using squalene as substrate in presence of NADPH by spectrophotometer analysis
T1 sequence (Q92206 whole entry): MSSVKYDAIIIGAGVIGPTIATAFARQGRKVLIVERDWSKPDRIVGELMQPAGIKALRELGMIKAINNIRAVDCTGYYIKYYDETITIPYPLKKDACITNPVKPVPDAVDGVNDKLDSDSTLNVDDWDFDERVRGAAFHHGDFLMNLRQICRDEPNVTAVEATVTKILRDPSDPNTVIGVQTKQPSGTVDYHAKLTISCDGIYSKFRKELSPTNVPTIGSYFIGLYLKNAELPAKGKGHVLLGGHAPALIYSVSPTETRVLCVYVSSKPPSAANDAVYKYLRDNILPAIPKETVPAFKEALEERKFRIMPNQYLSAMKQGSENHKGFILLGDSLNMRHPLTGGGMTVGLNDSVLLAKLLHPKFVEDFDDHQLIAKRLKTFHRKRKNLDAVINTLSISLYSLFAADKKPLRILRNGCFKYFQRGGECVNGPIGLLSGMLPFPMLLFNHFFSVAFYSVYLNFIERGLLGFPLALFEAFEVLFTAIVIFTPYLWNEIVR

Candida albicans [16] = assay: Antifungal activity against fluconazole resistant Candida albicans strain CaR assessed as fungal growth inhibition measured after 72 hrs in presence of miconazole by CLSI protocol based liquid medium dilution method
Candida albicans [17] = assay: Antifungal activity against fluconazole resistant Candida albicans strain 17# assessed as fungal growth inhibition measured after 72 hrs in presence of miconazole by CLSI protocol based liquid medium dilution method
Candida albicans [18] = assay: microbe, parasite or virus in culture; details: Candida albicans, 103, 72 h
Description: Antifungal activity against fluconazole resistant Candida albicans strain 103 assessed as fungal growth inhibition measured after 72 hrs in presence of miconazole by CLSI protocol based liquid medium dilution method

Candida albicans [19] = assay: microbe, parasite or virus in culture; details: Candida albicans, 901, 72 h
Description: Antifungal activity against fluconazole resistant Candida albicans strain 901 assessed as fungal growth inhibition measured after 72 hrs in presence of miconazole by CLSI protocol based liquid medium dilution method

Candida albicans [20] = assay: microbe, parasite or virus in culture; details: Candida albicans, 904, 72 h
Description: Antifungal activity against fluconazole resistant Candida albicans strain 904 assessed as fungal growth inhibition measured after 72 hrs in presence of miconazole by CLSI protocol based liquid medium dilution method

CN(C/C=C/c1ccccc1)Cc1cccc2ccccc12 [NAFTIFINE]
MIC50 (Candida albicans [1]): 0.5 µg/mL (≈ 1.74 µM) | MIC50 (Pichia kudriavzevii): 0.5 µg/mL (≈ 1.74 µM) | MIC50 (Nakaseomyces glabratus): 1 µg/mL (≈ 3.48 µM) | MIC50 (Candida tropicalis): 0.5 µg/mL (≈ 1.74 µM) | MIC50 (Aspergillus fumigatus): 4 µg/mL (≈ 13.9 µM) | MIC50 (Candida albicans [2]): 2 µg/mL (≈ 6.96 µM) | MIC50 (Candida albicans [3]): 4 µg/mL (≈ 13.9 µM) | MIC50 (Candida albicans [4]): 4 µg/mL (≈ 13.9 µM) | MIC50 (Candida albicans [5]): 2 µg/mL (≈ 6.96 µM) | MIC50 (Candida albicans [6]): 4 µg/mL (≈ 13.9 µM) | Activity (Candida albicans [7]): 61.6% | Activity (Candida albicans [8]): 0.56% | Activity (Candida albicans [9]): 35.85% | Activity (Candida albicans [10]): 1.99% | Activity (Candida albicans [11]): 35.1% | Activity (Candida albicans [12]): 52.8% | Activity (Candida albicans [13]): 2.6% | Activity (Candida albicans [14]): 3.7% | Activity (Candida albicans [15]): 5.8% | IC50 (Squalene epoxidase ERG1): 317 nM | MIC50 (Candida albicans [16]): 1 µg/mL | MIC50 (Candida albicans [17]): 1 µg/mL | MIC50 (Candida albicans [18]): 2 µg/mL (≈ 6.96 µM) | MIC50 (Candida albicans [19]): 2 µg/mL (≈ 6.96 µM) | MIC50 (Candida albicans [20]): 1 µg/mL (≈ 3.48 µM)
